# Test results: the METLIN SMRT retention time set (Domingo-Almenara et al. 2019)
# Assay: gradient 5% acetonitrile 3 min, to 50% in 2 min, to 85% in 15 min, held 3 min, 100 µL/min
# Conditions: column: Zorbax Extend-C18 2.1 x 50 mm; eluents: water / acetonitrile, 0.1% formic acid
# Summary of the method: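 Values are retention times taken from adduct peaks that software picked and an analyst inspected. The pure standards were run as mixtures of ~100 molecules on HPLC linked to a quadrupole time-of-flight mass spectrometer, in positive and negative ionization mode. A Zorbax Extend-C18 column (2.1 × 50 mm, 1.8 μm) was used at 100 μL/min with water and acetonitrile, each including 0.1% formic acid.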
row,RP-LC retention time [s],SMILES
1,763,Cc1cccc(Cn2nc3n(c2=O)CCCCC3)c1
2,753,O=C(C(=O)N1CCN(c2ccc(F)cc2)CC1)c1ccc[nH]1
3,877,Cc1ccccc1NC(=O)C1CCCN(C(=O)c2nn(C)c3c2CN(C(=O)CC2CCCC2)CC3)C1 (centres undefined)
4,1280,Cc1ccc(-c2noc(-c3ccc(N4CCN(c5ncccn5)CC4)nc3)n2)cc1
5,987,CC1CCN(C(=O)CN2C(=O)CCCc3cc(S(=O)(=O)N4CCC(C)CC4)ccc32)CC1
6,597,CN1CCC(OC2CCN(C(=O)c3ccc(Br)o3)CC2)CC1
7,842,COC(=O)c1ccc(C(=O)NCC(O)(c2ccccc2)C(F)(F)F)cc1 (centres undefined)
8,846,CCOc1ccc(NS(=O)(=O)c2cc(C(=O)N3CCN(c4ccccc4OC)CC3)n[nH]2)cc1
9,1390,Cc1ccc(-c2noc(CN3C(=O)COc4ccc(C(C)(C)C)cc43)n2)cc1C
10,678,O=C(CN1CCN(c2ccc(F)c(F)c2)C1=O)NC1CCSC1=O (centres undefined)
11,1110,Cc1cccc(N2CCN(Cc3nc(-c4ccc(N5CCC(C)CC5)nc4)no3)CC2)c1
12,660,NC(=O)C1CCN(C(=O)c2cn(-c3ccc(Cl)cc3)nn2)CC1
13,674,O=C(c1cc(-c2ccc3c(c2)OCO3)nc2ccccc12)N1CCN(c2ccccn2)CC1
14,1030,CCc1cccc(NC(=O)c2cn(C)nc2S(=O)(=O)N2CCSCC2)c1
15,992,O=C(Nc1ccc(Cl)cc1F)c1cnc(-c2ccc(F)cc2)nc1-c1ccncc1
16,1210,COC(=O)c1ccc(NC(=O)c2c(O)c3cccnc3n(-c3ccc(F)cc3)c2=O)cc1
17,982,COc1cccc(CNC(=O)C2(C)CCCN(C(=O)Nc3cccc(Cl)c3C)C2)c1 (centres undefined)
18,615,CC(=O)c1sc(NC(=O)c2c[nH]c3ccccc3c2=O)nc1C
19,640,O=C(NCCc1csc(C2CCN(C(=O)C3CC3)CC2)n1)C1CC1
20,936,CC(=O)N1CCCc2cc(S(=O)(=O)CCC(=O)N3CCN(c4cc(C)ccc4C)CC3)ccc21
21,741,O=C(Cc1ccccc1)N1CCCCC1c1nncn1-c1ccccc1 (centres undefined)
22,934,O=C(Nc1cnc(N2CCCCC2)nc1)c1ccc(F)cc1F

row,RP-LC retention time [s],SMILES
1,718,O=C(NCc1csc(C2CCCN(C(=O)COc3ccccc3)C2)n1)C1CC1 (centres undefined)
2,712,COCCn1ccc2nc(C)c(C(=O)NCc3ccc(SC)cc3)cc2c1=O
3,1100,Cc1cccc(C)c1Nc1c(-c2ccc(N3CCOCC3)cc2)nc2cnc(Br)cn12
4,729,Cc1ccc(-n2cc3c(N4CCCC(C(=O)NCc5ccc(F)cc5F)C4)ncnc3n2)cc1 (centres undefined)
5,629,Cc1onc(-c2cccc(Br)c2)c1C(=O)NCCCN1CCOCC1
6,657,COc1ccc(NC(=O)NCCc2nc3cccnc3n2-c2ccccc2)cc1OC
7,564,COc1ccc(CN2CCC3(CC2)CC(O)CCO3)cc1 (centres undefined)
8,687,CCc1ccc(-n2c(CN3CCN(C(=O)NC(C)(C)C)CC3)nc3cccnc32)cc1
9,746,COc1cccc(-c2ccc(=O)n(CCc3nc(-c4cccnc4)no3)n2)c1
10,674,COc1ccc(CNC(=O)c2c(C)sc3ccn(C)c(=O)c23)cc1OC
11,636,CC1CN2C=NC(N3CCN(C(=O)Nc4ccc(Cl)cc4F)CC3)=CC2=N1 (centres undefined)
12,942,O=c1n(Cc2ccccc2)nc2c(S(=O)(=O)N3CCc4ccccc4C3)cccn12
13,751,CCSc1ccccc1C(=O)Nc1nnc(-c2ccsc2)o1
14,839,COCCNC(=O)N1CCCn2nc(-c3ccc(C(F)(F)F)cc3)cc2C1
15,813,CC(C)(C)C(O)CCNC(=O)c1ccc(C(F)(F)F)cc1 (centres undefined)
16,772,Cc1ccc(C(=O)CC2(O)C(=O)Nc3ccc(Cl)cc32)cc1C (centres undefined)
17,797,COc1ncc(C(=O)NC(C)CCc2ccccc2)cn1 (centres undefined)
18,714,CCc1nn2c(CNC(=O)c3ccc(C(F)(F)F)cc3)c(C)nc2s1
19,1110,C=CCN(Cc1nc(-c2cccc(C)c2)no1)C(=O)Nc1ccc(C)cc1
20,753,O=C(c1cccc2[nH]cc(CN3CCOCC3)c12)N1CCN(c2ccc(Cl)cc2)CC1
21,877,Cc1sc(NC(=O)CSc2nnc(COc3ccccc3)o2)nc1-c1ccccc1
22,671,O=C(C1CCC1)N1CCC(c2nc(C3CCOCC3)no2)C1 (centres undefined)

row,RP-LC retention time [s],SMILES
1,933,Cc1[nH]c(C(=O)Nc2ccccc2F)c(C)c1S(=O)(=O)N1CCCCC1
2,609,O=C(Cc1cccs1)NCC(=O)Nc1nc2ccccc2[nH]1
3,904,CCCN(CC1CCOC1)S(=O)(=O)c1ccccc1C (centres undefined)
4,868,COc1cc(-c2noc(Cn3c(=O)n(-c4ccccc4)c(=O)c4sccc43)n2)cc(OC)c1OC
5,696,CN(C)S(=O)(=O)c1ccc2c(c1)N(CC(=O)NCC1COCCO1)C(=O)C1CCCCN21 (centres undefined)
6,609,Cc1ccc(C(=O)N2C[C@@H]3C[C@H](NC(=O)c4cccnc4)[C@H]2C3)cc1F
7,572,CCOc1ccccc1C(=O)NCC(c1ccc(N(C)C)cc1)N(C)C (centres undefined)
8,798,Cc1nc(Cn2cccc2C(=O)Nc2cccc(C#N)c2)no1
9,694,O=C(c1cc(-c2cccnc2)n[nH]1)N1CCC(C(=O)N2CCN(c3ccc(Cl)cc3)CC2)CC1
10,697,O=S(=O)(Nc1ccccc1F)c1c[nH]c2ncccc12
11,737,COc1cccc(NC(=O)C2CC(=O)N(c3n[nH]c4cccc(F)c34)C2)c1 (centres undefined)
12,884,COc1ccc(-n2nc(N3CCCC(C(=O)NC(C)CCc4ccccc4)C3)ccc2=O)cc1 (centres undefined)
13,657,O=C(Cn1ccc2ccccc21)NCc1n[nH]c(=O)c2ccccc12
14,932,NS(=O)(=O)c1cccnc1Nc1cccc(C(F)(F)F)c1
15,915,Cc1ccc(-c2nc(-c3cccc(-c4ccn[nH]4)c3)no2)cc1F
16,679,CSc1cccc(NC(=O)N2CCC(c3cc(=O)n4nccc4n3C)CC2)c1
17,629,O=C(NCCN1CCOCC1)c1cc2n(n1)CCCN(Cc1ccc(Cl)cc1)C2=O
18,775,CCNC(=O)N1CCCC(c2cccc(C(=O)NCc3ccccc3C)c2)C1 (centres undefined)
19,636,Cc1cc(N2CCOCC2)nc(N2CCN(C(=O)c3cccc(Br)c3)CC2)n1
20,632,Cc1nc2cc3c(cc2n1CC(=O)Nc1ccc2c(c1)OCCO2)OCCO3
21,663,O=C(Cn1cnc2nc(N3CCCC(C(=O)NC4CC4)C3)sc2c1=O)Nc1ccccc1 (centres undefined)
22,922,O=C(NCc1ccc(C(F)(F)F)cc1)C1=C2CCCN2c2ccccc2S1(=O)=O

row,RP-LC retention time [s],SMILES
1,882,COC(=O)c1cccc(NC(=O)Cn2c(C)cc(-c3nnc(C4CCC4)o3)c2C)c1
2,855,COc1ccc(C)cc1NC(=O)NC1CCN(c2ccc(F)cc2)C1=O (centres undefined)
3,717,O=C(NCC1CCCO1)c1cn(-c2cc(N3CCSCC3)ncn2)cn1 (centres undefined)
4,781,CCc1cc(=O)n(CC(=O)N2CCCc3ccccc32)c(N2CCOCC2)n1
5,1070,COc1cc(Cl)ccc1-c1nc(C2CC(=O)N(c3ccc(C)cc3)C2)no1 (centres undefined)
6,567,Cc1cc(NC(=O)CSc2[nH]c(=O)ncc2C)on1
7,652,O=C(Nc1ccc(Br)cc1F)Nc1c(-c2ccncc2)nc2ccccn12
8,641,O=C(CN1CCN(Cc2ccccc2)C1=O)NC1CC1
9,714,Cc1oc(-c2cccs2)nc1CSc1ncnc2nc[nH]c12
10,622,COc1cc(C2C(C(=O)N3CCOCC3)=C(C)NC3=C2C(=O)CCC3)ccc1OC(C)=O (centres undefined)
11,972,Cc1ccc(CNC(=O)NCc2c(C)nn(-c3ccccc3)c2-n2cccc2)cc1
12,1100,N#Cc1cccc(Cn2nc(-c3nc(-c4ccc(Cl)cc4)no3)ccc2=O)c1
13,662,CC(C)NC(=O)c1cccnc1N1CCSCC1
14,786,Cc1nn(-c2ccccc2)c(C)c1S(=O)(=O)N1CCC(C(=O)N2CCCC2)CC1
15,829,CC1CN(c2ccc(Br)cc2)c2nc3c(c(=O)n(CC(=O)O)c(=O)n3C)n2C1 (centres undefined)
16,965,CCOC(=O)c1cc([N+](=O)[O-])sc1NC(=O)CCCS(=O)(=O)c1ccc(F)cc1
17,630,Cn1cc(CCN2CCC(C(=O)NCc3cccc(Cl)c3)CC2)c2cccnc21
18,678,Cc1c(Cl)cccc1NC(=O)Cn1cnc2nc(N3CCOCC3)ncc2c1=O
19,777,O=c1c(=O)n(-c2ccccc2)ccn1Cc1nc(-c2ccccc2)no1
20,945,COc1ccc(-c2noc(Cc3nnc(-c4cccc(C)c4)o3)n2)cc1OC
21,884,O=C(CSc1ccncc1)Nc1ccc(OCc2nnc(-c3ccccc3)o2)cc1

row,SMILES,RP-LC retention time [s]
1,O=C(Cn1c(Cc2ccccc2)nc2ccccc21)N1CCOCC1,593
2,COc1ccc2c(c1)C1(CCN(C(=O)COc3cccc(C)c3)C1)C(=O)N2 (centres undefined),668
